The results in this text go back to patent US20120027753A1, “MicroRNAs in Never-Smokers and Related Materials and Methods” (THE OHIO STATE UNIVERSITY, priority 2009, published 2012).

Common to all, as to type: cell-based, human
Series [1] has as its system miR-21 expression in H441 cells. Kind of series: qRT-PCR of miR-21 expression after AG1478 treatment, H441. The note with it: H441, AG1478 at 10 μM, absence of EGF, p<0.05. The method, then:
FIG. 7: AG1478 represses miR-21 expression in H441 lung adenocarcinoma cells. MiR-21 expression levels were analyzed by qRT-PCR after the AG1478 treatments (2 μM or 10 μM) in the absence of EGF and expressed relative to untreated cells. Data were mean±SD from triplicate. *, p<0.05, paired t-test.
(§1) Expression of mature miRs was examined using qRT-PCR analysis using a TaqMan Human MicroRNA Assay kit (Applied Biosystems, Foster City, Calif.). RNU6B was used as an endogenous control (#4373381, Applied Biosystems). Reactions were performed using a PRISM 7700 Sequence Detector System (Applied Biosystems). Gene expression was quantified and values were reported as 2-ΔΔCT. Data were presented as mean±SD from triplicate.
(§2) AG1478 was purchased from Calbiochem (San Diego, Calif.). Epidermal growth factor (EGF) was purchased from Promega (Madison, Wis.). To evaluate the effect of AG1478 on the EGFR signaling pathway and miR-21 expression levels, lung cancer cell lines were serum-starved for 24 h, incubated in the presence or absence of AG1478 (2 μM or 10 μM) for 2 h, and then for an additional 15 min in the presence or absence of EGF (20 ng/ml).
A general note: Quantitative PCR measures a nucleic acid by following its amplification.

Series [2] relates to miR-21 expression in H3255 cells. In words: qRT-PCR of miR-21 expression after AG1478/EGF treatment, H3255. The note with it: for miR-21 expression levels: AG1478 2 μM or 10 μM. The method, then:
(§3) FIGS. 2A-2B: AG1478 represses miR-21 expression. H3255 lung adenocarcinoma cells, characterized by a high expression of miR-21 and EGFR mutation, were serum-starved for 24 h and then grown in either the presence or absence of AG1478 (2 μM or 10 μM) for 2 h with or without following exposure to 20 ng/ml of EGF for 15 min.
FIG. 2B: MiR-21 expression levels analyzed by qRT-PCR after the AG1478 treatments (2 μM or 10 μM) with or without EGF ligand stimulation. MiR-21 expression levels were expressed as the relative values to untreated cells in the absence of EGF. Data were mean±SD from four independent experiments. *, p<0.05, paired t-test.
as §1, §2

Series [3] relates to A549 lung adenocarcinoma cells (EGFR wild-type). In words: MTS growth inhibition assay, A549. An excerpt: (§4) Six lung adenocarcinoma cell lines (A549, H23, H441, H1650, H1975 and H3255), one squamous cell line (H157) and one large cell carcinoma cell line (H1299) were used in this study. H3255 was provided by National Cancer Institute and maintained in ACL-4 medium (GIBCO) with 5% fetal bovine serum (GIBCO). A549, H23, H441, H1650, H1975, H157 and H1299 were purchased from American Type Culture Collection (ATCC) and maintained in RPMI 1640 (GIBCO) with 10% fetal bovine serum. hTERT-immortalized normal human bronchial epithelial cells (HBET2) were established.
(§5) Growth inhibition was assessed by MTS assay (Dojindo, Japan) to examine the effect of AG1478 on lung cancer cell lines. Cell suspensions (5,000 cells/well) were seeded into 96-well plates and increasing concentrations of AG1478 (0, 0.4, 2.0, 10 and 50 μM) were added. After incubation for 72 h at 37° C., MTS [3-(4,5-dimethylthiazol-2-yl)-5-(3-carboxymethoxyphenyl)-2-(4-sulfophenyl) 2H-tetrazolium, inner salt] was added to each well and incubated for 2 h at 37° C., and then absorbance was measured using a microplate reader with a test wavelength of 450 nm. The IC50 value was defined as the concentration needed for 50% reduction of the growth by treatment with AG1478. Each experiment was done at least in triplicate, and four times independently. The data were shown as mean±SD.
On the technique in general: Tetrazolium assays rely on reduction of a dye to a coloured formazan, in cell work by metabolically active cells.

Series [4] concerns H441 lung adenocarcinoma cells (EGFR wild-type). Kind of series: MTS growth inhibition assay, H441. To be noted: 72 h, read-out: IC50 (half maximal inhibitory concentration), cell growth.
Excerpt: as §4, §5

In series [5] the test system is H1975 lung adenocarcinoma cells (EGFR mutant L858R and T790M). In words: MTS growth inhibition assay, H1975.
Excerpt: as §4, §5

Series [6] concerns H1650 lung adenocarcinoma cells (EGFR mutant ΔE746-A750). Kind of series: MTS growth inhibition assay, H1650.
Excerpt: as §4, §5

Series [7] relates to H3255 lung adenocarcinoma cells (EGFR mutant L858R). Kind of series: MTS growth inhibition assay, H3255. To be noted: 72 h, read-out: IC50 (half maximal inhibitory concentration), cell growth.
Excerpt: as §4, §5

The subject of series [8] is EGFR signaling (phospho-EGFR, phospho-Akt) in H3255 cells. In words: Western blot of p-EGFR and p-Akt after AG1478 treatment, H3255. To be noted: H3255, AG1478 at either 2 μM or 10 μM for 2 h, with or without EGF 20 ng/ml. The procedure:
as §3
FIG. 2A: The effect of AG1478 on phospho-EGFR (p-EGFR) and phospho-Akt (p-Akt) expression. β-actin was a loading control.
as §2
Cells were lysed in buffer containing 50 mM Tris-HCl, pH 7.6, 150 mM NaCl, 0.1% sodium dodecyl sulfate, 1% Nonidet P-40, and 0.5% sodium-deoxycholate. […] The supernatant was collected and then 10 μg of protein were separated by gel electrophoresis on 10% gels, transferred to nitrocellulose membranes and detected by immunoblotting using a chemiluminescence system (GE Healthcare Bio-Sciences Corp, Piscataway, N.J.). The images were quantified by measuring signal intensity using NIH ImageJ1.40g (rsb.info.nih.gov/ij/). […]
(In general: In western blotting, separated proteins are transferred to a membrane and probed.)

In a further series the test system is miR-21 in H3255 cells. Kind of series: qRT-PCR of miR-21 after anti-miR-21 transfection, H3255. The note with it: H3255, 40 nM, 72 h, vs anti-EGFP control. The procedure: (§6) FIG. 3A: Cells were transfected with 40 nM of anti-miR-21 (+) or control oligonucleotide (anti-EGFP) (−) for 72 h and examined by qRT-PCR. The expression levels of miR-21 after transfection of anti-miR-21 were expressed as the relative values to control. Data were mean±SD from three independent experiments. *, p<0.05, paired t-test.
as §1
(§7) 2′-O-methyl oligonucleotides were chemically synthesized at Integrated DNA Technologies (Coralville, Iowa). […] Activities of caspase-3 and caspase-7 were analyzed using ApoONE Homogeneous Caspase 3/7 Assay (Promega) according to the manufacturer's instructions. Samples were measured after 6 h of incubation with the caspase substrate on a fluorescent plate reader using wavelengths of 485 and 535 nm for excitation and emission, respectively. […]

The subject of series [9] is uncleaved PARP in H3255 cells. Kind of series: Western blot of uncleaved PARP, H3255. The note with it: H3255, both anti-miR-21 and AG1478 (2 μM, 72 h). The method, then: (§8) FIG. 3D: Uncleaved PARP was evaluated by Western blot. Cells were transfected with anti-miR-21 or anti-EGFP as above and then grown in the presence or absence of 2 μM of AG1478 for 72 h. β-actin was a loading control.
(§9) Cells were lysed in buffer containing 50 mM Tris-HCl, pH 7.6, 150 mM NaCl, 0.1% sodium dodecyl sulfate, 1% Nonidet P-40, and 0.5% sodium-deoxycholate. The lysates were kept on ice for 30 min, and then centrifuged at 13000 g for 30 min. The supernatant was collected and then 10 μg of protein were separated by gel electrophoresis on 10% gels, transferred to nitrocellulose membranes and detected by immunoblotting using a chemiluminescence system (GE Healthcare Bio-Sciences Corp, Piscataway, N.J.). The images were quantified by measuring signal intensity using NIH ImageJ1.40g (rsb.info.nih.gov/ij/). The antibodies detecting EGFR, phospho-EGFR (Tyr1173), phospho-Akt (Ser473), PARP and β-actin were purchased from Cell Signaling Technology (Beverley, Mass.).

Series [10] concerns uncleaved PARP in H441 cells. Kind of series: Western blot of uncleaved PARP, H441. The note with it: H441, anti-miR-21 in the presence or absence of AG1478 (2 μM, 72 h). The method, then: as §8, §9
Series [11] has as its system H441 cells (caspase-3 and caspase-7 activities). In words: ApoONE caspase 3/7 apoptosis assay, H441. The procedure:
(§10) FIGS. 3B-3C: Cells (H3255 or H441) were transfected with 40 nM of anti-miR-21 (+) or anti-EGFP (−) for 72 h and then grown in the presence or absence of 0.2 μM of AG1478 for 24 h (H3255) or 10 μM for 72 h (H441). The activities of caspase 3/7 were expressed as the relative values to the activities of cells without anti-miR-21 and AG1478. Data were mean±SD from at least four independent experiments. *, p<0.05, Student t-test.
(§11) 2′-O-methyl oligonucleotides were chemically synthesized at Integrated DNA Technologies (Coralville, Iowa). 2′-O-methyl oligonucleotides had the following sequences: 2′OMe-enhanced green fluorescent protein (EGFP) (anti-EGFP) 5′-AAGGCAAGCUGACCCUGAAGU-3′ [SEQ ID NO:1] and 2′OMe-miR-21 (anti-miR-21) 5′-UCA ACA UCA GUC UGA UAA GCUA-3′ [SEQ ID NO:2]. H441 and H3255 cells were plated in triplicate in 96-well plates. Cells were transfected using LipofectAMINE 2000 reagent (Invitrogen) 24 h after plating. […] Activities of caspase-3 and caspase-7 were analyzed using ApoONE Homogeneous Caspase 3/7 Assay (Promega) according to the manufacturer's instructions. Samples were measured after 6 h of incubation with the caspase substrate on a fluorescent plate reader using wavelengths of 485 and 535 nm for excitation and emission, respectively. […]

The next series concerns miR-21 in H441 cells. In words: qRT-PCR of miR-21 after anti-miR-21 transfection, H441. To be noted: H441, 40 nM, 72 h, vs anti-EGFP control. The method, then: as §6, §1, §7
Series [12] deals with H3255 cells (caspase-3 and caspase-7 activities). Kind of series: ApoONE caspase 3/7 apoptosis assay, H3255. The procedure:
as §10, §11

As to `COc1cc2ncnc(Nc3cccc(Cl)c3)c2cc1OC` [AG1478], in [1], the miR-21 expression entry is reported as “significantly repressed miR-21 expression”. Further, the miR-21 expression levels entry in series [2] (H3255, absence of EGF, p<0.01) was “significantly repressed”; in [2] (H3255, with EGF 20 ng/ml, p<0.05), “inhibited back to the basal levels”. For the same molecule, the cell proliferation entry in [3], in series [5] and in series [6] was “inhibited cell proliferation” throughout. In addition, the IC50 in series [4] stood at 10 µM; in series [7] it was 0.3 µM. The “EGFR signaling (p-EGFR and p-Akt)” value in series [8] was “effectively inhibited the EGFR signaling”.
Consider “EGF: Epidermal growth factor (EGF) ligand, purchased from Promega”, for which, in series [2] (H3255, serum-starved, EGF 20 ng/ml for 15 min, relative to untreated cells), the “upregulation of miR-21 expression” value is given as ~2.5 fold.
Take “anti-miR-21: 2′-O-methyl antisense oligonucleotide targeting miR-21, 5′-UCA ACA UCA GUC UGA UAA GCUA-3′ [SEQ ID NO:2] (antisense UCAACAUCAGUCUGAUAAGCUA; all 2'-O-methyl, backbone not given here)”: the “miR-21 expression after antisense transfection” value in the series with miR-21 in H3255 cells and with miR-21 in H441 cells was “repression of miR-21 in these cells was confirmed” throughout. Further, the “amounts of uncleaved PARP” value in series [9] and in series [10] was “markedly decreased” each time. In addition, the “apoptosis (caspase 3/7 activities)” value is “significant increase in apoptotic response” in series [11] (H441, anti-miR-21 40 nM alone); “further enhanced apoptotic response” in series [11] (H441, anti-miR-21 40 nM in combination with 10 μM AG1478 for 72 h); “did not induce apoptosis” in series [12] (H3255, anti-miR-21 40 nM alone); “significantly enhanced AG1478-induced apoptotic response” in series [12] (H3255, anti-miR-21 40 nM in combination with AG1478 at 0.2 μM for 24 h).
